Among the data in ChEMBL document CHEMBL1134990, “Trifluoromethyl ketones as inhibitors of histone deacetylase” (Bioorg Med Chem Lett, 2002) are inhibition and IC50 values, retold here.

Test [1] addresses T1, Histone deacetylase (HDAC1 and HDAC2) (Homo sapiens, UniProt Q13547+Q92769). Nature of the test: Inhibition of human histone deacetylase (mixture of HDAC1 and HDAC2) prepared from K562 erythroleukemia cells. The note with it: concentration not given here. Format: cell-based.
The test system of another test is MDA-MB-435. The experiment in a line: Anti-proliferative activity against human tumor cell line MDA-435. Format: functional, cell-based.
In a further test the test system is HT-1080. The experiment in a line: Anti-proliferative activity against human tumor cell line HT1080. Format: functional, cell-based.
Test [2] deals with T1, Histone deacetylase (HDAC1 and HDAC2). The experiment in a line: Inhibition of human histone deacetylase (mixture of HDAC1 and HDAC2) prepared from K562 erythroleukemia cells. Format: cell-based.

As a reminder, the inhibition is how much of the control response was suppressed. Usually IC50 stands for the midpoint of a concentration-inhibition curve.

T1 sequence (Q13547 whole entry, looked up): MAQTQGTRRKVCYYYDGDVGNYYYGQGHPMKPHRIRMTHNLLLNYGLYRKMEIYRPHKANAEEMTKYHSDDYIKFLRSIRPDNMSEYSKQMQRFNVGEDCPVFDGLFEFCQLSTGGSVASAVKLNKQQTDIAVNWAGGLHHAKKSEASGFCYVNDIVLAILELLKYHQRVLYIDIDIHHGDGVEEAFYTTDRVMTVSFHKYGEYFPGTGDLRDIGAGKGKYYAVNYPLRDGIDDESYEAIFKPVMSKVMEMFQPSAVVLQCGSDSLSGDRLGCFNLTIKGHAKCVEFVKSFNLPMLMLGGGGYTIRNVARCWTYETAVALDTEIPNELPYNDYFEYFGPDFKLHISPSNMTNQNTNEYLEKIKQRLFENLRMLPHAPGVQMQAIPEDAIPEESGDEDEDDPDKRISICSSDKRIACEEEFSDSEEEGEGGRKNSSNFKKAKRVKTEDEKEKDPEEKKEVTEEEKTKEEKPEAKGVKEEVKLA
T1 sequence (Q92769 whole entry, looked up): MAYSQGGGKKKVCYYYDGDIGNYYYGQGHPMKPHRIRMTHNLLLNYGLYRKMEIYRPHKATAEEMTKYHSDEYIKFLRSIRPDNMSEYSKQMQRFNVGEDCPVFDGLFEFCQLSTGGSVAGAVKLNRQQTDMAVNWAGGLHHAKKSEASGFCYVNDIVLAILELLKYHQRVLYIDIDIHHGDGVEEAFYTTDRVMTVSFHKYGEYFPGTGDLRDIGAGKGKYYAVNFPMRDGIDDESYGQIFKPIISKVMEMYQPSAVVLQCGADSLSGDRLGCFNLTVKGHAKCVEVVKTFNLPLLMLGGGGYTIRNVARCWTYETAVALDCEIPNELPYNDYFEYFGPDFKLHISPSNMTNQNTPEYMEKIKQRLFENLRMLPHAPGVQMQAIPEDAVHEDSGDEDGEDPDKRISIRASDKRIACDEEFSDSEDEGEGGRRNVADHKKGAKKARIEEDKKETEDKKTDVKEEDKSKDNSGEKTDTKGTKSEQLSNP

For `O=C(CCCCCCCOc1ccc(-c2ccccc2)cc1)C(F)(F)F`, the inhibition in test [1] stood at 72%.

As for `O=C(CCCCCCC(=O)C(F)(F)F)Nc1ccccc1`, the results for the IC50 with MDA-MB-435 and in the test on HT-1080 were 15 µM and 2.2 µM, respectively.

As for `O=C(CCCCCCC(=O)C(F)(F)F)Nc1cccc(-c2ccccc2)c1`, the results for the IC50 (with MDA-MB-435; in test [2]; in the test on HT-1080) were 23 µM, 0.38 µM and 16 µM, respectively.
